{
  "source": "paper PMC6988089",
  "about": "(Journal of the American Chemical Society, 2019)",
  "type_in_all_cases": "biochemical",
  "key": {"[1]": {"tested_on": "G9a Y1154A mutant", "assay": "Substrate peptide alkylation by G9a-Y1154A with SAM analogues", "settings": "TAMRA-labeled H3K9 peptide; MALDI-MS"}, "[2]": {"tested_on": "G9a Y1154G mutant", "assay": "Substrate peptide benzylation by G9a-Y1154G"}, "[3]": {"tested_on": "Y372G mutant of Suv39H2", "assay": "Benzylation of substrate peptide and full-length H3 by Suv39H2-Y372G"}, "[4]": {"tested_on": "Suv39H2 mutant / hole-modified CBX1", "settings": "full-length H3 and purified mononucleosomes; Western blot"}},
  "data": [
    {"smiles": "Nc1ncnc2c1ncn2[C@@H]1O[C@H](C[S+](CC[C@H](N)C(=O)O)Cc2ccccc2)[C@@H](O)[C@H]1O", "note": "(some centres unmarked) [benzyl-SAM]", "values": [
      {"measurement": "substrate modification by G9a-Y1154A", "setting": "[1]", "result": "not efficient at incorporating benzyl modification"},
      {"measurement": "substrate benzylation by G9a-Y1154G", "setting": "[2]; TAMRA-labeled H3K9 peptide, MALDI-MS", "result": "complete substrate benzylation"},
      {"measurement": "dibenzylation of substrate by G9a mutant", "setting": "[2]; under our assay conditions, Figure S2", "result": "did not observe any dibenzylation"},
      {"measurement": "utilization of benzyl-SAM by Suv39H2-Y372G", "setting": "[3]", "result": "efficiently utilized benzyl-SAM"},
      {"measurement": "H3 signal after enrichment with hole-modified CBX1", "setting": "[4]", "result": "signal for H3 only in the presence of benzyl-SAM"}
    ]}
  ]
}
